We go through one molecule from paper PMC12423301, “Astrocytic monoamine oxidase B (MAOB)–gamma-aminobutyric acid (GABA) axis as a molecular brake on repair following spinal cord injury” (Signal Transduction and Targeted Therapy, 2025).

One data set has as its system rat SCI model. The experiment in a line: TEM and TB staining of rat spinal cord (myelination). Format: in vivo, Sprague-Dawley (SD) rats.
Data set [1] is described as follows: Blood chemistry and liver function in monkey SCI model. Format: in vivo, cynomolgus macaques (Macaca fascicularis). Here is the method:
Blood samples were collected from the animals via the radial or femoral vein at three time points: 2 days, 2 weeks, and 5 weeks post-injury. All the animals were fasted for approximately 16 h prior to each collection, with water provided ad libitum. Approximately 2.0 mL of blood was drawn and placed into tubes without anticoagulant and left at room temperature for at least 90 min. The samples were then centrifuged at 3000 rpm for 10 min at room temperature to separate the serum. Finally, the serum samples were analyzed for creatinine (CREA), alkaline phosphatase (ALP), gamma-glutamyl transpeptidase (GGT), total bilirubin (TBIL), ALB, ALT, and aspartate aminotransferase (AST) levels. These biochemical parameters were measured using a TBA 120FR chemistry analyzer (Toshiba Co.).

In data set [2] the test system is diphtheria toxin receptor-inducible transgenic mice. Format: in vivo, mouse.
A short description of another data set: Safety pharmacology test. The conditions noted are these: in vivo. Here is the method: (§1) Protocol No. NB_KDS_ADP1_21 Confidential administration of the test substance to rats at a dose of 50-200 mg/kg daily for 2 weeks, there were no deaths.
(§2) As a result of oral administration to rats at doses of 30, 50, 75 and 100 mg/kg once daily for 4 weeks, […]
(§3) testis, epididymis and lungs. Renal epithelial hyperplasia and inflammatory cells infiltration in the renal pelvis observed in the male and female dose groups of 75 mg/kg or more, germ cell degeneration/loss and seminiferous tubules atrophy observed in the male dose groups of 75 mg/kg or more, and vacuole/degeneration of outer medullary tubules and basophilic tubules observed in the female dose groups were judged to be adverse effects due to administration of the test substance. […] Accordingly, in repeated administrations of rats for 4 weeks, the NOAEL(No Observed Adverse Effect Level) was determined to be 50 mg/kg/day for males and 30 mg/kg for females. […]
(§4) In a pharmacokinetic study, plasma PK parameters were measured after a single oral administration of […]
(§5) a result of measuring excretion into urine, feces, expiration, and bile, 6.9% was excreted in urine and 48.5% in feces, respectively, up to 168 hours after administration. Excretion to air through respiration was about 0.0% until 48 hours after administration, and 44.1% of the administered radioactivity concentration was present in the body (carcass). […]

The target in another data set is hERG (Homo sapiens, UniProt Q12809). The experiment in a line: hERG assay. Type of data set: biochemical. Here is the method: as §1, §2, §3, §4, §5
hERG, sequence (Q12809 whole entry): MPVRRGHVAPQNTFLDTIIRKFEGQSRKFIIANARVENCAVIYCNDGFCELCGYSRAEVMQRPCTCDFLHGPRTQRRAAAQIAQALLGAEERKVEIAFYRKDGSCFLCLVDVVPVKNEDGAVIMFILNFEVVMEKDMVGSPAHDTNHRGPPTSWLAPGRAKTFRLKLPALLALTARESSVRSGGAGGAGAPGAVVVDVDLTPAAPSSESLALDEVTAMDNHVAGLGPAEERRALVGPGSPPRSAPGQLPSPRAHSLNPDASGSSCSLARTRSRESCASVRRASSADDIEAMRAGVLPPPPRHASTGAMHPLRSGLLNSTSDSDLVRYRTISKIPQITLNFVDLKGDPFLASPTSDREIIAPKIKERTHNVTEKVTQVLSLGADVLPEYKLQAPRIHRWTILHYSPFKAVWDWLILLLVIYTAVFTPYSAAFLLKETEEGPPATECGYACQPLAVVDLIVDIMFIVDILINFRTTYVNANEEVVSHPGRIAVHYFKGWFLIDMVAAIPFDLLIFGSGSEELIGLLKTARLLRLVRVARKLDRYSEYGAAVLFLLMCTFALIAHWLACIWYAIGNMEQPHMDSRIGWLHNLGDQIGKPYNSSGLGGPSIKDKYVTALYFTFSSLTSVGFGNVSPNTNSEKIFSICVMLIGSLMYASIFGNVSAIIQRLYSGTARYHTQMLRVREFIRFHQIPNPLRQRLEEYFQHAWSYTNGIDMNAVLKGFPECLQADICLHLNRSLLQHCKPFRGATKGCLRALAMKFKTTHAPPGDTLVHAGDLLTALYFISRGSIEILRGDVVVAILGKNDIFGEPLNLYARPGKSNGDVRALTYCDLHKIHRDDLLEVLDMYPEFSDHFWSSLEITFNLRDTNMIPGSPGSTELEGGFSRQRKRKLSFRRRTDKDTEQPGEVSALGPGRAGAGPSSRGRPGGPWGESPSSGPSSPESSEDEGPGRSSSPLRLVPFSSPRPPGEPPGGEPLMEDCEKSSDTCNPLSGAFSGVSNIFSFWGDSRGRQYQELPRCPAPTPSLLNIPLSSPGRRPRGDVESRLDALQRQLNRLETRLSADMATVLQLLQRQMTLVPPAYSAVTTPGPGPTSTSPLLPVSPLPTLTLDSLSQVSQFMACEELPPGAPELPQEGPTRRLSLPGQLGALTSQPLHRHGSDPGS
In general terms: The hERG channel carries a current that helps repolarise heart muscle cells.

A short description of data set [3]: Preclinical pharmacokinetics in monkeys. As to conditions: cynomolgus monkey, in vivo, iv, 5 mg/kg.
Data set [4] has as its system white matter stroke rat model. As to conditions: cited from earlier work.
A further data set is described as follows: in vivo. The conditions noted are these: Sprague-Dawley, rat.

SMILES strings stand for the structures.

Experimental for rat SCI model: Spinal cord tissues were prefixed in Karnovsky’s fixative (2% glutaraldehyde, 2% paraformaldehyde in 0.1 M phosphate buffer) overnight at 4 °C. After postfixation in 1% osmium tetroxide (OsO4), the samples were dehydrated through a graded ethanol series and embedded in epoxy resin.
For TB staining, 250–300 nm semi-thin sections were obtained via an ultramicrotome (Leica Ultracut UCT, Leica Microsystems, Austria), stained with 0.5% toluidine blue, and imaged using a light microscope (Olympus IX71).
For TEM, 80–100 nm ultrathin sections were cut using a diamond knife (Diatome, Switzerland), mounted on 300-mesh Gilder grids, and stained with 6% uranyl acetate and lead citrate. Images were acquired using a transmission electron microscope (JEM 1011, JEOL, Tokyo, Japan) as previously described.
All TB and TEM analyses were performed on spinal cord tissues collected at the lesion epicenter, where myelination is most affected by injury.

In general, IC50 refers to the concentration that gives 50% inhibition. A word on the AUC(0-inf): it is total exposure, with the tail of the curve extrapolated. In general, half-life refers to the time in which the quantity being followed falls by half. One may read the NOAEL as the highest dose or exposure tested at which no adverse effect was seen. As to `CS(=O)(=O)O.C[C@H](NCc1ccc(-c2ccc(C(F)(F)F)cc2)cc1)C(N)=O` [KDS2010, (S)-2-(((4’-Trifluoromethylbiphenyl-4-yl)methyl)amino)propanamide methane-sulfonate], the “myelination (TEM)” value in the data set with rat SCI model (SCI + KDS 2w at PI 10w) is “fully recovered”. Also, the “number of myelinated axons” value with rat SCI model (SCI + KDS 2w, PI 2-10w) is on record as “gradual increase”. Besides, the density of cavities result in the data set with rat SCI model (SCI + KDS 2w, TB staining, PI 2-10w) is listed as “gradual decrease”. Also, the “signs of hepatic and muscle stress” value in data set [1] (3 mpk) was “no signs of stress”. Further, in data set [1] (10 mpk, PI 2w), the “creatine kinase (CK) and alanine transaminase (ALT) levels” value is recorded as “transient increases”. In data set [1] (10 mpk, PI 5w), the “CK and ALT levels” value is given as “returned to normal”; the “albumin (ALB) levels” value is “moderate reduction”. For the same molecule, in data set [1] (monkey SCI model), the “No-Observed-Adverse-Effect Level (NOAEL)” value is given as 3 mpk. In addition, in data set [2], the brain atrophy result is given as “restored to the level of control group”; the “neurofilament (NF)” value was “reducing”; the “neuronal factors NeuN and MAP2” value is recorded as “increasing”; the survival entry is “increase in survival”. Also, in the data set “Safety pharmacology test”, the “effects on central nervous system, respiratory system, and cardiovascular system” value is on record as “no effect”. In addition, the IC50 at hERG is 7.8 ± 1.7 µM. This molecule also gave an AUC(0-inf) in data set [3] of 17900 ± 2460 ng·h/mL. In data set [3] (t1/2), this molecule had a half-life of 8.65 ± 0.97 h. In addition, the motor performance result in data set [4] is “improve motor performance”. For the same molecule, the MTD in the data set “in vivo” (po) worked out at 700 mg/kg. In addition, the NOAEL at 4 weeks in the data set “in vivo” (female, NOAEL) came to 30 mg/kg. The NOAEL at 4 weeks in “in vivo” (female, human equivalent dose (HED) of NOAEL) came to 4.84 mg/kg. Besides, the NOAEL at 4 weeks in “in vivo” (male, NOAEL) is 50 mg/kg/day.
